Laboratory results reported in patent US12122779B2, “Pyrrolo-pyridazine derivatives as muscarinic M1 receptor positive allosteric modulators” (SUVEN LIFE SCIENCES LIMITED, priority 2018, dated 2024).
Each block holds one molecule with its values, some of them ahead of it.

Tests used:
[1] = biological target: T1, recombinant human Muscarinic M1 receptor (Homo sapiens, UniProt P11229); assay: Allosteric potency EC50 for muscarinic M1 receptor, CHO pCRE-Luc reporter cell-based assay with EC20 of acetylcholine; details: CHO cells, luciferase activity, in presence of EC20 of acetylcholine, 4 hours
T1 sequence (P11229 1-460): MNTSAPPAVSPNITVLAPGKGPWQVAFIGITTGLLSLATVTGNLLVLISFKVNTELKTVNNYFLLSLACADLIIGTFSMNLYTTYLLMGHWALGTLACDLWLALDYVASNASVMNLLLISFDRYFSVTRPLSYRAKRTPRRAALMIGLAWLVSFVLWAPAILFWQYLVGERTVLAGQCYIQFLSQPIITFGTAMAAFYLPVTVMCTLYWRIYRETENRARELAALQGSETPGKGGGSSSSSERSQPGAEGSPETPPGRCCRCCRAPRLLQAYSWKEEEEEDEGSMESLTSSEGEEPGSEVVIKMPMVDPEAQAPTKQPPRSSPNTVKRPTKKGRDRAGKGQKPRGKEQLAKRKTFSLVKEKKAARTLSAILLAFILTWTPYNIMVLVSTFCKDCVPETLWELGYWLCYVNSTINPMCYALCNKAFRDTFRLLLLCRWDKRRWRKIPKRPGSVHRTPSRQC
Description: Determination of Allosteric Potency EC50 Values for Muscarinic M1 Receptor
A stable CHO cell line expressing recombinant human Muscarinic M1 receptor and pCRE-Luc reporter system was used for cell-based assay. The assay offers a non-radioactive based approach to determine binding of a compound to GPCRs. In this specific assay, the level of intracellular cyclic AMP which is modulated by activation or inhibition of the receptor is measured. The recombinant cells harbor luciferase reporter gene under the control of cyclic AMP response element.
The above cells were grown in 96 well clear bottom white plates in Hams F12 medium containing 10% fetal bovine serum (FBS). Prior to the addition of compounds or standard agonist, cells were serum starved overnight. Increasing concentrations of test compounds were added along with EC20 of acetylcholine in OptiMEM medium to the cells. The incubation was continued at 37° C. in CO2 incubator for 4 hours. Medium was removed and cells were washed with phosphate buffered saline. The cells were lysed and luciferase activity was measured in a Luminometer. Luminescence units were plotted against the compound concentrations using Graphpad software.

[2] = Rodent pharmacokinetic study; format: in vivo, Male Wistar rats; details: male, Wistar, plasma, rat; for bioavailability: oral 3 mg/kg vs intravenous 1 mg/kg, read-out: F (%) Bioavailability
Description: Rodent Pharmacokinetic Study
Male Wistar rats (260±50 grams) were used as experimental animals. Animals were housed individually in polypropylene cage. Two days prior to study, male Wistar rats were anesthetized with isoflurane for surgical placement of jugular vein catheter. Rats were randomly divided for oral (3 mg/kg) and intravenous (1 mg/kg) dosing (n=3/group) and fasted overnight before oral dosing (p.o.). However, rats allocated to intravenous dosing food and water was provided ad libitum.
At pre-determined point, blood was collected through jugular vein and replenished with an equivalent volume of normal saline. Collected blood was transferred into a labeled eppendorf tube containing 10 μL of heparin as an anticoagulant. Typically blood samples were collected at following time points: 0.08, 0.25, 0.5, 1, 2, 4, 6, 8, and 24 h post dose. Blood was centrifuged at 4000 rpm for 10 minutes. Plasma was separated and stored frozen at −80° C. until analysis. The concentrations of the test compounds were quantified in plasma by qualified LC-MS/MS method using suitable extraction technique. The test compounds were quantified in the calibration range around 1-1000 ng/mL in plasma. Study samples were analyzed using calibration samples in the batch and quality control samples spread across the batch.
Pharmacokinetic parameters Cmax, AUCt, T1/2, Clearance and Bioavailability (F) were calculated by non-compartmental model using standard non-compartmental model by using Phoenix WinNonlin 6.0.4 version Software package.

[3] = Rodent brain penetration study; format: in vivo, Male Wistar rats; details: male, Wistar, brain and plasma, po; rat, 3 mg/kg p.o., brain-plasma ratio; read-out: Single dose Rat Brain Penetration (Cb/Cp) at 3 mg/kg, p.o.
Description: Rodent Brain Penetration Study
Male Wistar rats (260±40 grams) were used as experimental animals. Three animals were housed in each cage. Animals were given water and food ad libitum throughout the experiment and maintained on a 12 h light/dark cycle.
Brain penetration was determined in discrete manner in rats. One day prior to dosing day, male Wistar rats were acclimatized and randomly grouped according to their weight. At each time point (0.50, 1 and 2 h) n=3 animals were used.
The test compounds were suitably preformulated and administered orally at (free base equivalent) 3 mg/kg. Blood samples were removed via cardiac puncture by using isoflurane anesthesia. The animals were sacrificed to collect brain tissue. Plasma was separated and brain samples were homogenized and stored frozen at −20° C. until analysis. The concentrations of the test compounds in plasma and brain were determined using LC-MS/MS method.
The test compounds were quantified in plasma and brain homogenate by qualified LC-MS/MS method using suitable extraction technique. The test compounds were quantified in the calibration range of 1-500 ng/mL in plasma and brain homogenate. Study samples were analyzed using calibration samples in the batch and quality control samples spread across the batch. Extent of brain-plasma ratio (Cb/Cp) was calculated.

Structure (SMILES): CC(C)(O)CNC(=O)c1cc(Cc2ccc(Cl)cc2)c2cccn2n1 [Example 3, N-[2-Hydroxy-2-methyl-propyl]-4-(4-chlorobenzyl)-pyrrolo[1,2-b]pyridazine-2-carboxamide]
EC50 [1]: 941 nM

Structure (SMILES): O=C(NCC1(O)CCOCC1)c1cc(Cc2ccc(Cl)cc2)c2cccn2n1 [Example 6, N-[(4-Hydroxy-tetrahydro-pyran-4-ylmethyl)]-4-(4-chlorobenzyl)-pyrrolo[1,2-b]pyridazine-2-carboxamide]
EC50 [1]: 3990 nM

Structure (SMILES): O=C(NCCO)c1cc(Cc2ccc(Br)cc2)c2cccn2n1 [Example 12, N-[2-hydroxyethyl]-4-(4-bromobenzyl)-pyrrolo[1,2-b]pyridazine-2-carboxamide]
EC50 [1]: 1550 nM

Structure (SMILES): CCC(CO)NC(=O)c1cc(Cc2ccc(Br)cc2)c2cccn2n1 (stereo not drawn) [Example 16, N-[1-Hydroxymethyl-propyl]-4-(4-bromobenzyl)-pyrrolo[1,2-b]pyridazine-2-carboxamide]
EC50 [1]: 1000 nM

Structure (SMILES): CC(C)C(CO)NC(=O)c1cc(Cc2ccc(Br)cc2)c2cccn2n1 (stereo not drawn) [Example 17, N-[1-Hydroxymethyl-2-methylpropyl]-4-(4-bromobenzyl)-pyrrolo[1,2-b]pyridazine-2-carboxamide]
EC50 [1]: 1900 nM

Structure (SMILES): Cn1cc(-c2ccc(Cc3cc(C(=O)NC4CCOCC4)nn4cccc34)cc2)cn1 [Example 21, N-[Tetrahydropyran-4-yl] 4-[4-(1-methyl-1H-pyrazol-4-yl)-benzyl]-pyrrolo[1,2-b]pyridazine-2-carboxamide]
AUC(0-t) ([2]; intravenous (bolus), 1 mg/kg): 8200 ± 1560 ng·h/mL
clearance ([2]; intravenous (bolus), 1 mg/kg): 1.9 ± 0.5 mL/min/kg
half-life ([2]; intravenous (bolus), 1 mg/kg): 8.1 ± 1.4 h
bioavailability [2]: 58 ± 2%
AUC(0-t) ([2]; oral (gavage), 3 mg/kg): 14200 ± 493 ng·h/mL
Cmax ([2]; oral (gavage), 3 mg/kg): 1060 ± 257 ng/mL
half-life ([2]; oral (gavage), 3 mg/kg): 8.7 ± 3 h

Structure (SMILES): Cn1cc(-c2ccc(Cc3cc(C(=O)NCC4(O)CCOCC4)nn4cccc34)cc2)cn1 [Example 22, N-[4-Hydroxy-tetrahydro-pyran-4-ylmethyl] 4-[4-(1-methyl-1H-pyrazol-4-yl)-benzyl]-pyrrolo[1,2-b]pyridazine-2-carboxamide]
EC50 [1]: 1660 nM

Structure (SMILES): Cn1cc(-c2ccc(Cc3cc(C(=O)NCC4CCOC4)nn4cccc34)cc2)cn1 (stereo not drawn) [Example 35, N-[Tetrahydrofuran-3-ylmethyl] 4-[4-(1-methyl-1H-pyrazol-4-yl)-benzyl]-pyrrolo[1,2-b]pyridazine-2-carboxamide]
EC50 [1]: 343 nM

Structure (SMILES): CCC(CO)NC(=O)c1cc(Cc2ccc(-c3cnn(C)c3)cc2)c2cccn2n1 (stereo not drawn) [Example 36, N-[l-Hydroxymethyl-propyl] 4-[4-(1-methyl-1H-pyrazol-4-yl)-benzyl]-pyrrolo[1,2-b]pyridazine-2-carboxamide]
EC50 [1]: 1150 nM

Structure (SMILES): CC(C)C(CO)NC(=O)c1cc(Cc2ccc(-c3cnn(C)c3)cc2)c2cccn2n1 (stereo not drawn) [Example 37, N-[1-Hydroxymethyl-2-methylpropyl] 4-[4-(1-methyl-1H-pyrazol-4-yl)-benzyl]-pyrrolo[1,2-b]pyridazine-2-carboxamide]
EC50 [1]: 411 nM

Continued, values first:

EC50 [1]: 1020 nM
Structure (SMILES): O=C(N[C@H]1CCCC[C@@H]1O)c1cc(Cc2ccc(-c3ccc(F)cc3)cc2)c2cccn2n1 (stereo in doubt) [Example 23, N-[(1S,2S)-2-Hydroxycyclohexyl] 4-[4-(4-fluorophenyl)-benzyl]-pyrrolo[1,2-b]pyridazine-2-carboxamide]

AUC(0-t) ([2]; intravenous (bolus), 1 mg/kg): 1130 ± 61 ng·h/mL
clearance ([2]; intravenous (bolus), 1 mg/kg): 14.4 ± 1 mL/min/kg
half-life ([2]; intravenous (bolus), 1 mg/kg): 1.8 ± 0.2 h
bioavailability [2]: 71 ± 4%
AUC(0-t) ([2]; oral (gavage), 3 mg/kg): 2390 ± 129 ng·h/mL
Cmax ([2]; oral (gavage), 3 mg/kg): 762 ± 80 ng/mL
half-life ([2]; oral (gavage), 3 mg/kg): 1.77 ± 0.07 h
Structure (SMILES): O=C(N[C@H]1CCCC[C@@H]1O)c1cc(Cc2ccc(-c3cccnc3)cc2)c2cccn2n1 (stereo in doubt) [Example 26, N-[(1S,2S)-2-Hydroxycyclohexyl] 4-[4-(3-pyridyl)-benzyl]-pyrrolo[1,2-b]pyridazine-2-carboxamide]

AUC(0-t) ([2]; intravenous (bolus), 1 mg/kg): 687 ± 50 ng·h/mL
clearance ([2]; intravenous (bolus), 1 mg/kg): 24 ± 1.8 mL/min/kg
half-life ([2]; intravenous (bolus), 1 mg/kg): 1.1 ± 0.3 h
bioavailability [2]: 49 ± 16%
AUC(0-t) ([2]; oral (gavage), 3 mg/kg): 1000 ± 320 ng·h/mL
Cmax ([2]; oral (gavage), 3 mg/kg): 397 ± 162 ng/mL
half-life ([2]; oral (gavage), 3 mg/kg): 1.06 ± 0.08 h
Structure (SMILES): O=C(N[C@H]1CCCC[C@@H]1O)c1cc(Cc2ccc(-c3ccncc3)cc2)c2cccn2n1 (stereo in doubt) [Example 27, N-[(1S,2S)-2-Hydroxycyclohexyl] 4-[4-(4-pyridyl)-benzyl]-pyrrolo[1,2-b]pyridazine-2-carboxamide]

EC50 [1]: 96 nM
AUC(0-t) ([2]; intravenous (bolus), 1 mg/kg): 2290 ± 121 ng·h/mL
clearance ([2]; intravenous (bolus), 1 mg/kg): 7.1 ± 0.4 mL/min/kg
half-life ([2]; intravenous (bolus), 1 mg/kg): 1.7 ± 0.1 h
bioavailability [2]: 64 ± 9%
AUC(0-t) ([2]; oral (gavage), 3 mg/kg): 4430 ± 618 ng·h/mL
Cmax ([2]; oral (gavage), 3 mg/kg): 1440 ± 241 ng/mL
half-life ([2]; oral (gavage), 3 mg/kg): 1.79 ± 0.37 h
Kp [3]: 0.17 ± 0.01
Structure (SMILES): Cc1cncc(-c2ccc(Cc3cc(C(=O)N[C@H]4CCCC[C@@H]4O)nn4cccc34)cc2)c1 (stereo in doubt) [Example 44, N-[(1S,2S)-2-Hydroxycyclohexyl]-4-[4-(5-methylpyridin-3-yl)-benzyl]-pyrrolo[1,2-b]pyridazine-2-carboxamide]

EC50 [1]: 555 nM
Structure (SMILES): O=C(N[C@H]1CCCC[C@@H]1O)c1cc(Cc2ccc(Cl)cc2)c2cccn2n1 [Example 2, N-[(1S,2S)-2-Hydroxycyclohexyl]-4-(4-chlorobenzyl)-pyrrolo[1,2-b]pyridazine-2-carboxamide]

EC50 [1]: 344 nM
Structure (SMILES): O=C(N[C@H]1CCCC[C@@H]1O)c1cc(Cc2ccc(Br)cc2)c2cccn2n1 [Example 5, N-[(1S,2S)-2-Hydroxycyclohexyl]-4-(4-bromobenzyl)-pyrrolo[1,2-b]pyridazine-2-carboxamide]

EC50 [1]: 847 nM
Structure (SMILES): O=C(N[C@H]1CCCC[C@@H]1O)c1cc(Cc2cccc(F)c2)c2cccn2n1 [Example 7, N-[(1S,2S)-2-Hydroxycyclohexyl]-4-(3-fluorobenzyl)-pyrrolo[1,2-b]pyridazine-2-carboxamide]

EC50 [1]: 586 nM
Structure (SMILES): O=C(NC1CCOCC1)c1cc(Cc2ccc(-c3cccnc3)cc2)c2cccn2n1 [Example 28, N-[Tetrahydropyran-4-yl] 4-[4-(3-pyridyl)-benzyl]-pyrrolo[1,2-b]pyridazine-2-carboxamide]

EC50 [1]: 2020 nM
Structure (SMILES): Cn1cc(-c2ccc(Cc3cc(C(=O)NC4CCOC4)nn4cccc34)cc2)cn1 (stereo not drawn) [Example 32, N-[Tetrahydrofuran-3-yl] 4-[4-(1-methyl-1H-pyrazol-4-yl)-benzyl]-pyrrolo[1,2-b]pyridazine-2-carboxamide]

EC50 [1]: 2110 nM
Structure (SMILES): O=C(NC1CCOC1)c1cc(Cc2ccc(-c3ccncc3)cc2)c2cccn2n1 (stereo not drawn) [Example 33, N-[Tetrahydrofuran-3-yl] 4-[4-(4-pyridyl)-benzyl]-pyrrolo[1,2-b]pyridazine-2-carboxamide]

EC50 [1]: 2850 nM
Structure (SMILES): O=C(NC1CCOC1)c1cc(Cc2ccc(-c3cccnc3)cc2)c2cccn2n1 (stereo not drawn) [Example 34, N-[Tetrahydrofuran-3-yl] 4-[4-(3-pyridyl)-benzyl]-pyrrolo[1,2-b]pyridazine-2-carboxamide]

EC50 [1]: 518 nM
Structure (SMILES): O=C(N[C@H]1CCCC[C@@H]1O)c1cc(Cc2ccc(Cc3ccnc(F)c3)cc2)c2cccn2n1 [Example 50, N-[(1S,2S)-2-Hydroxycyclohexyl]-4-[4-(2-fluoropyridin-4-yl-methyl)-benzyl]-pyrrolo[1,2-b]pyridazine-2-carboxamide]
